Read-outs that look alike come from different tables or passages of the source.
What was measured:
R2R3 (V287I) tau peptide [1] = biological target: T1, R2R3 (V287I) tau peptide (Homo sapiens, UniProt P10636, V604I); experiment: SPR titration cycle kinetics, immobilized R2R3 (V287I) peptide; format: binding
Protocol: SPR experiments were conducted using the Sierra® SPR‐24 Pro system (Bruker Daltonics, Bremen, Germany), featuring a gold‐coated microfluidic array (24 detection spots, 3 × 8 format). Data acquisition and kinetic analysis were performed using SPR Analyzer 4 software.
All experiments were conducted at 25°C using PBS (pH 7.4) supplemented with 0.05% Tween‐20 and 5% DMSO as the running buffer to ensure assay reproducibility. Assay components, including 96‐well microtiter plates (Part # 1862984; Burker) and Microplate and Reservoir Sealer (Part #1862985; Burker), were used for sample handling and were compatible with the Sierra SPR®‐24 Pro system (Bruker Daltonics, Billerica, MA, USA).
WT and mutant (P301L, V287I, and N279K) tau peptides were dissolved in 10 mM sodium acetate buffer (pH 5.0; Burker) and immobilized onto High‐Capacity Amine Sensor Surfaces (Part #1862614; Bruker) using the Amine Coupling Kit (Part #1862634; Bruker). The sensor surface was preconditioned with a Surface Elution Buffer (Part #1862656; Bruker Daltonics) and 0.1M HCl to remove contaminants and improve binding specificity.
The surface was activated using 400 mM 1‐ethyl‐3‐(3‐dimethylaminopropyl) carbodiimide (Burker) and 50 mM N‐hydroxysuccinimide (Burker), enabling covalent attachment of tau peptides. Unreacted binding sites were blocked with 1M ethanolamine‐HCl (pH 8.5; Burker) to minimize nonspecific interactions. For each experiment, specific sensor spots (A/B/C) on channels 1–8 were designated for tau‐analyte interactions, with corresponding reference spots on the same channel for baseline correction. DMSO calibration solutions (4.6%, 4.8%, 5%, 5.2%, and 5.4%) were prepared for double referencing to compensate for DMSO solvent effects.
PUR and OLC were prepared in PBS (pH 7.4) supplemented with 0.05% Tween‐20 and 5% DMSO. Compound interactions with tau peptides were pre‐screened using a concentration range of 1–100 μM, and subsequent binding kinetics were evaluated at optimized concentrations. For kinetic studies, PUR was tested at […], while OLC was tested at 25–100 μM using two‐fold serial dilutions. Each analyte was sequentially injected, and association and dissociation phases were monitored to determine kinetic parameters.
SPR binding kinetics were assessed using the titration cycle kinetics (TCK) assay, which included consecutive association phases followed by a single dissociation phase. Pre‐assay simulations using the Kinetic Simulator feature of SPR Analyzer 4 software were used to optimize analyte concentration ranges and association/dissociation times. A reference blank injection was included for double referencing, and a single dissociation curve was recorded for the highest analyte concentration.
Sensorgrams were analyzed using the Kinetic Titration model, which was integrated into the global kinetic fitting model of the SPR Analyzer 4 software. This approach allowed for baseline correction and improved the reliability of kinetic parameters, including the Kon, Koff, and KD.
TCK‐derived kinetic parameters were compared across multiple runs and confirmed using Multi Injection Cycle Kinetics to validate reproducibility and accuracy.

R2R3 (V287I) tau peptide [2] = biological target: T1, R2R3 (V287I) tau peptide; experiment: ThT aggregation assay of monomeric R2R3 (V287I) peptide; format: biochemical; conditions: for ThT-stained aggregates, confocal imaging: R2R3 V287I, compound 10 μM, end of ThT assay
Protocol: The aggregation kinetics of tau peptides were monitored using a ThT assay. A 40 μL reaction mixture containing 15 μM ThT (Sigma‐Aldrich, Cat. # T3516‐5G) and 50 μM peptide in the absence (control) or presence of 0.1 μM, 1 μM, and 10 μM PUR or OLC was prepared on ice in aggregation buffer (20 mM Tris [pH 7.4], 100 mM NaCl, 1 mM ethylenediaminetetraacetic acid [EDTA]) containing 5 μM heparin (Sigma‐Aldrich, Cat. #H4784). dithiothreitol (DTT) was excluded to avoid its differential effects on the aggregation kinetics of tau peptides containing Cys291 or Cys322 and to prevent peroxide generation by redox‐active compounds like PUR, which can lead to oxidative artifacts and false‐positive inhibition signals, as reported in our previous study (Annadurai, Malina, Salmona, et al., [2022]). This mixture was then dispensed into a clear‐bottom, black 384‐well ViewPlate (Revvity, Waltham, MA, United States; Part # 6007460) and sealed with a TopSealA‐PLUS (Revvity) to prevent evaporation.
Aggregation was monitored using EnSpire Multimode Plate Reader (Revvity) at 37°C with constant agitation (1000 rpm). To minimize condensation, the upper heater temperature was set to 2°C higher than the lower heater temperature. ThT fluorescence (ThT—λ ex: 460–490 nm and λem: 500–550 nm) was recorded every 5–10 min for 48 h.
ThT fluorescence curves were fitted to a sigmoidal function in GraphPad Prism (version 10, San Diego, CA, USA) using the following equation:
Y=Top/1+expV50–X/Slope , where Y is the ThT fluorescence intensity, X is time (h), Top is the maximum fluorescence intensity, V50 is the time to reach 50% of Top, and Slope describes the steepness of the aggregation transition. Baseline fluorescence at the start of the measurements was relatively low across samples and was not separately fitted. In samples showing early increases in fluorescence, the aggregation trajectory was modeled directly without introducing an independent baseline parameter.
The V50 value obtained from each replicate was used as the aggregation t 1/2 for statistical analysis.
To evaluate the effect of compounds on the extent of aggregation, the AUC was calculated for each replicate ThT fluorescence curve using GraphPad Prism. AUC values were then normalized to the mean AUC of the untreated control group and expressed as “aggregation (% of control),” serving as an indirect and comparative measure of fibril formation.
Figure S11. Confocal imaging of ThT-stained aggregates formed in the presence of PUR and OLC (corresponding to Figure 3). […] ThT fluorescence was acquired using a Yokogawa Cell Voyager 7000S high-content imaging system equipped with a 20× objective (Ex: 460–490 nm, Em: 500–550 nm) and analyzed with Signals Image Artist (Revvity). […]

R2R3 (WT) tau peptide = biological target: T2, R2R3 (WT) tau peptide (Homo sapiens, UniProt P10636); experiment: Atomic force microscopy of R2R3 (WT) aggregates; format: biochemical; conditions: compound 10 μM, 48 h
T2 construct: Peptides spanning R2R3—including PHF6 and PHF6*; purchased ProteoGenix (Schiltigheim, France); host or cells: chemical synthesis (custom peptide)
Protocol: (§1) Aggregates collected after 48 h of aggregation were processed for AFM analysis as described previously (Annadurai, Malina, Malohlava, et al., [2022]).

R2R3 (N279K) tau peptide = R2R3 (N279K) tau peptide (Homo sapiens, UniProt P10636, N596K); experiment: Atomic force microscopy of R2R3 (N279K) aggregates; format: biochemical; conditions: compound 10 μM, 48 h
Protocol: as §1

T1 sequence (P10636 592-653 V604I): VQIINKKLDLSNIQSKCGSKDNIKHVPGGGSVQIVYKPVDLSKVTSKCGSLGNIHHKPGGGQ
T2 sequence (P10636 592-653 limits assumed): as the sequence (P10636 592-653 V604I) above, with I13V counted along it
Chain of R2R3 (N279K) tau peptide (P10636 592-653 N596K): as the sequence (P10636 592-653 V604I) above, with N5K, I13V counted along it

C/C=C(/C=O)[C@@H](CC=O)CC(=O)OCCc1ccc(O)cc1 [OLC, oleocanthal]
Kon (R2R3 (V287I) tau peptide [1]; SPR, R2R3 V287I): 42.24 M⁻¹ s⁻¹ | koff (R2R3 (V287I) tau peptide [1]; SPR, R2R3 V287I): 8.69e-05 s⁻¹ | Kd (R2R3 (V287I) tau peptide [1]; SPR, R2R3 V287I peptide immobilized, 25°C, PBS pH 7.4, read-out: KD): 2.06 µM | aggregation (% of control), AUC of ThT fluorescence (R2R3 (V287I) tau peptide [2]; R2R3 V287I 50 μM, compound 0.1 μM): 71% | ThT-stained aggregates, confocal imaging (R2R3 (V287I) tau peptide [2]): marked reduction in ThT signal | AFM morphology of aggregates (R2R3 (WT) tau peptide): shorter, fragmented fibrils | AFM morphology of aggregates (R2R3 (N279K) tau peptide): no fibrillar or aggregated structures were detected

O=C1c2ccccc2C(=O)c2c(O)c(O)cc(O)c21 [PUR, purpurin]
Kd (R2R3 (V287I) tau peptide [1]): 4.73 µM | kon (R2R3 (V287I) tau peptide [1]; SPR, R2R3 V287I): 42.1 M⁻¹ s⁻¹ | koff (R2R3 (V287I) tau peptide [1]; SPR, R2R3 V287I, read-out: Koff): 0.000199 s⁻¹ | remaining activity at 0.1 µM (R2R3 (V287I) tau peptide [2]; R2R3 V287I 50 μM, compound 0.1 μM, read-out: aggregation (% of control), AUC of ThT fluorescence): 44% | ThT-stained aggregates, confocal imaging (R2R3 (V287I) tau peptide [2]): marked reduction in ThT signal | AFM morphology of aggregates (R2R3 (WT) tau peptide): shorter, fragmented fibrils | AFM morphology of aggregates (R2R3 (N279K) tau peptide): no fibrillar or aggregated structures were detected

Reference: paper PMC12381781, “Structural and functional insights into the selective inhibition of mutant tau aggregation by purpurin and oleocanthal in frontotemporal dementia” (Protein Science : A Publication of the Protein Society, 2025)
